Where no end group is shown, it is not given here.
Tests used:
ASyn preformed fibrils = molecular target: T1, ASyn preformed fibrils (Homo sapiens, UniProt P37840); experiment: Thioflavin-T (ThT) assay; assay type: biochemical; conditions: 20 μM ASyn preformed fibrils + 20 μM peptide in PBS, 70 μM ThT; for reduction in ThT fluorescence intensity: excitation 440 nm, over the course of 46 h
T1 construct: purchased StressMarq
Protocol: Thioflavin T assay was conducted to assess the effect of five peptides (PYYYWKELAQM; PYYYWKDPNGS; EQALMPEGMGLEDPNGS; ELAQMPYYYWKDPNGS; ELAQMPWIWYWKDPNGS) on ASyn preformed fibrils (StressMarq). […] [75]. The samples were prepared by incubating 20 μM of ASyn diluted in PBS buffer with 20 μM of each peptide. To each sample, 70 μM ThT dye diluted in deionized water was added. The prepared solutions were then transferred into quartz cuvettes, and the emission spectra at different time intervals were recorded. Samples were excited at 440 nm, and emission spectra were recorded between 460 nm to 550 nm at a slit of 3 nm.

[1] = DPPH radical scavenging antioxidant assay; assay type: biochemical; conditions: colorimetric DPPH kit; at the highest concentrations (2, 10, 20, 40 µM tested)
Protocol: To investigate the antioxidant activity of the five peptides (PYYYWKELAQM; PYYYWKDPNGS; EQALMPEGMGLEDPNGS; ELAQMPYYYWKDPNGS; ELAQMPWIWYWKDPNGS), we conducted a colorimetric DPPH (2,2-diphenyl-1-picrylhydrazyl) radical scavenging assay using an antioxidant assay kit (AbCam, USA). In general, the protocol from the assay kit was followed to determine the antioxidant activity. Four different concentrations of each of the peptides were utilized (2 µM, 10 µM, 20 µM, and 40 µM). A standard curve was generated using Trolox, and then the activities of each of the peptides were compared by calculating the inhibition ratio.

Row | Sequence | reduction in ThT fluorescence intensity (ASyn preformed fibrils) | reduction in ThT fluorescence intensity at 48 h (ASyn preformed fibrils; at 48 h) | DPPH radical scavenging activity in comparison to Trolox (standard) [1]
1 | ELAQMGPEGPMGLEDPNGS [ELAQMGPEGPMGLEDPNGS] | 32% |  | 
2 | ELAQMPYYYWKDPNGS [ELAQMPYYYWKDPNGS] | 27% |  | 
3 | EQALMPWIWYWKDPNGS [EQALMPWIWYWKDPNGS] |  | 42% | 19%
4 | PYYYWKDPNGS [PYYYWKDPNGS] | 46.2% |  | 

Reference: PMC11591946, “Exploring the Potential of Biomimetic Peptides in Targeting Fibrillar and Filamentous Alpha-Synuclein—An In Silico and Experimental Approach to Parkinson’s Disease” (Biomimetics, 2024)
